# From patent publication US8481459B2, “Chemical inhibitors of ethylene biosynthesis” (Academia Sinica, priority 2010, dated 2013)
# Columns and labels:
# [1] = system: etiolated eto2-1 seedlings; experiment: Hypocotyl length of etiolated eto2-1 seedlings; type: in vivo, Arabidopsis thaliana; conditions: 30 μM
# Procedure: Seeds of eto1-4 and eto2-1 were germinated in the dark in the absence (−) or presence (+) of different concentrations (10, 20 or 30 μM) of exemplary invention compounds and AVG. The length of hypocotyls and ethylene levels were quantified in 3-day-old etiolated seedlings. Data represent means±SE (n>40), and the experiments were repeated 3 times with similar results.
# Therefore, ACC oxidase as the primary target of exemplary the exemplary invention compounds can be excluded. To determine whether the exemplary invention compounds are inhibitors of ACC synthase, the following assays were used. First, the hypocotyl length and ethylene level in the dominant eto2-1 mutant were analyzed, which bears a missense mutation at the 3′ terminus of ACS5 to generate a mutated yet functional protein, ACS5^eto2-1. […] Second, the effect of exemplary invention compounds on the enzymatic activity of recombinant Arabidopsis ACS5 protein by an in vitro ACS activity assay was analyzed (Chae, et al. (2003) Plant Cell 15, 545-559; Savaldi-Goldstein, et al. (2008) Proc Natl Acad Sci USA 105, 15190-15195).
# [2] = biological target: T1, recombinant Arabidopsis ACS5 (Arabidopsis thaliana, UniProt Q37001); experiment: Enzyme kinetics assay of ACS5 (Lineweaver-Burk); type: biochemical; set-up: Vmax of recombinant ACS5 in the presence of inhibitor: unit not given here
# T1 construct: The full-length cDNA of Arabidopsis ACS5 (At5g65800) was cloned to pETDuet (Novagen); 6His (N); made in house; host or cells: E. coli BL21-CodonPlus (Stratagene)
# T1 sequence (Q37001 1-470): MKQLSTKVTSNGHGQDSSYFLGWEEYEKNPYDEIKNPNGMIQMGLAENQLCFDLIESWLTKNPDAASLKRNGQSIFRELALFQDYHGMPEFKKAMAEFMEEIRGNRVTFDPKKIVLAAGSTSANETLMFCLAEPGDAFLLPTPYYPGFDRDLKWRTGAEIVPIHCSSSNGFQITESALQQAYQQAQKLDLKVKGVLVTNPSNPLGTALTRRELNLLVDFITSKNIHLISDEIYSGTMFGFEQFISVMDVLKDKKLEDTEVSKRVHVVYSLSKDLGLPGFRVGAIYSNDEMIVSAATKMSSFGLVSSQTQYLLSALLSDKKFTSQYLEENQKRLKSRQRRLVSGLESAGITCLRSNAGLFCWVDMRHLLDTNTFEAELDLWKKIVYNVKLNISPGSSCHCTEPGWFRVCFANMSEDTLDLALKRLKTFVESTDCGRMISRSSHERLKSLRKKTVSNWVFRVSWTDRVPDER
# Procedure: For the enzyme kinetics assay, different concentrations of SAM (20, 40, 60, 80, 100, 150, and 200 μM) were used to determine the Km and Vmax of purified recombinant ACS5. In addition, two concentrations, 0.05 and 0.1 μM, of AVG and compound 7303 were tested to determine the inhibition constant Ki. Reactions of enzyme kinetics assay were performed by first incubating chemical inhibitors or DMSO with different concentrations of SAM in 20-mL GC vials, then 1.6 μg purified ACS5 was added to initiate the enzyme reaction for 30 min at 25° C. Gas chromatography was used to quantitate the levels of ethylene chemically converted from ACC as described previously. Data analysis of enzyme kinetics assays and preparation of Lineweaver-Burk plots were done by SIGMAPLOT (Systat Software Inc.).
# Because the exemplary invention compounds and AVG have distinct chemical structures (Table 1), they may use different mechanisms to inhibit ACC synthase. To clarify this issue, compound 7303 was selected as a representative of the exemplary invention compounds for enzyme kinetic assay to determine the inhibitory mechanism. […] Data from the enzyme kinetic assay support that the exemplary invention compounds are novel inhibitors of ACC synthase different from AVG and show uncompetitive inhibition in ACS activity.
structure (smiles),measurement,setting,value
COc1ccc(C2CC(=O)c3cnc(Nc4ccccc4)nc3C2)cc1 (centres unmarked) [Compound 7303],suppression in hypocotyl length,[1],25%
same,Vmax of recombinant ACS5 in the presence of inhibitor,"[2]; 0.1 μM inhibitor, without inhibitor 95.1±5.0",50.5±1.2
same,inhibition pattern (mechanism),"[2]; Lineweaver-Burk plot, 0.05 and 0.1 μM",uncompetitive inhibitor
same,Vmax,"[2]; kinetic parameters of recombinant ACS5 fitted for the inhibitor series, substrate SAM",92.4 µmol/h/mg
same,Ki,"[2]; recombinant ACS5, inhibitor at 0.05 and 0.1 μM, read-out: calculated inhibition constant (Ki)",98.4 ± 6.7 nM
